Here are results for four molecules from US20040063790A1, “Methods for inhibition of angiogenesis” (The Scripps Research Institute, priority 1996, published 2004).

Where a SMILES comes first, the peptide text is derived from it. [ ]: non-standard residue; d: D form.

The subject of assay [1] is tumor-induced angiogenesis. The experiment in a line: CAM assay, tumor-induced angiogenesis, intravenous application. The assay is classed as in vivo, chick. Particulars: intravenous injection. As to the method: Angiogenesis was induced in the CAM assay system by direct apposition of a tumor fragment on the CAM. Preparation of the chick embryo CAM was identical to the procedure described above. Instead of a filter paper disk, a 50 milligram (mg) to 55 mg in weight fragment of one of human melanoma tumor M21-L, human lung carcinoma tumor UCLAP-3, human pancreatic carcinoma cell line FG (Cheresh et al., Cell 58:945-953, 1989), or human laryngeal carcinoma cell line HEp3, all of which are αvβ3 negative tumors, was placed on the CAM in an area originally devoid of blood vessels.
The M21-L human melanoma cell line, UCLAP-3 human lung carcinoma cell line, FG pancreatic carcinoma cell line, or HEp3 human laryngeal carcinoma cell line, all αvβ3 negative, were used to grow the solid human tumors on the CAMs of chick embryos. A single cell suspension of 8×10^6 M21-L, UCLAP-3, and FB or 5×10^5 HEp3 cells was first applied to the CAMs in a total volume of 30 μl of sterile HBSS. The windows were sealed with tape and the embryos were incubated for 7 days to allow growth of human tumor lesions. At the end of 7 days, now a 17-day embryo, the tumors were resected from the CAMs and trimmed free of surrounding CAM tissue. […]
The effects of peptide exposure to tumor-induced vasculature in the CAM assay system was also assessed. […]

Assay [2] has as its system bFGF-induced angiogenesis. Kind of assay: CAM assay, growth factor-induced angiogenesis, topical application. The assay is classed as in vivo, chick. The settings on record: 80 μg peptide topically at 0, 24 and 48 hrs; viewed at 72 hours. As to the method: J. Pathol., 79:597 (1975). CAMs were prepared from chick embryos for subsequent induction of angiogenesis and inhibition thereof as described in Examples 4 and 5, respectively. Ten day old chick embryos were obtained from McIntyre Poultry (Lakeside, Calif.) and incubated at 37° C. with 60% humidity. A small hole was made through the shell at the end of the egg directly over the air sac with the use of a small crafts drill (Dremel, Division of Emerson Electric Co. Racine Wis.). A second hole was drilled on the broad side of the egg in a region devoid of embryonic blood vessels determined previously by candling the egg. […]
Angiogenesis was induced by placing a 5 millimeter (mm)×5 mm Whatman filter disk (Whatman Filter paper No.1) saturated with Hanks Balanced Salt Solution (HBSS, GIBCO, Grand Island, N.Y.) or HBSS containing 150 nanograms/milliliter (ng/ml) recombinant basic fibroblast growth factor (bFGF) (Genzyme, Cambridge, Mass.) on the CAM of a 10-day chick embryo in a region devoid of blood vessels and the windows were latter sealed with tape. […] For assays where inhibition of angiogenesis ws evaluated with intravenous injections of antagonists, angiogenesis was first induced with 1-2 μg/ml bFGF in fibroblast growth medium. Angiogenesis was monitored by photomicroscopy after 72 hours. […]
Quantification was performed in a double blind manner by at least two independent observers. […]

The target in a further assay is T1, αIIbβ3 (Homo sapiens, UniProt P05106+P08514).
T1 construct: selected purified integrins were separately immobilized in Titertek microtiter wells
The experiment in a line: Ligand-receptor binding assay, immobilized αIIbβ3. Particulars: radiolabeled fibrinogen; average of duplicate data points ± standard deviation; read-out: αIIbβ3 (IC50 μM). An excerpt: (§1) Herein described is a method of identifying antagonists in a ligand-receptor binding assay in which the receptor is immobilized to a solid support and the ligand and antagonist are soluble. Also described is a ligand-receptor binding assay in which the ligand is immobilized to a solid support and the receptor and antagonists are soluble.
(§2) Briefly, selected purified integrins were separately immobilized in Titertek microtiter wells at a coating concentration of 50 nanograms (ng) per well. The purification of the receptors used in the ligand-receptor binding assays are well known in the art and are readily obtainable with methods familiar to one of ordinary skill in the art. After incubation for 18 hours at 4° C., nonspecific binding sites on the plate were blocked with 10 milligrams/milliliter (mg/ml) of bovine serum albumin (BSA) in Tris-buffered saline. […] Radiolabeled ligands were used at concentrations of 1 nM and binding was challenged separately with unlabeled synthetic peptides.
(§3) Following a three hour incubation, free ligand was removed by washing and bound ligand was detected by gamma counting. […] The IC50 data in micromoles (IC50 μM) are expressed as the average of duplicate data points±the standard deviation as shown in Table 2.

The next assay has as its target T2, αvβ3 (Homo sapiens, UniProt P05106+P06756).
T2 construct: selected purified integrins were separately immobilized in Titertek microtiter wells
Kind of assay: Ligand-receptor binding assay, immobilized αvβ3.
Description: as §1, §2, §3

The target in the next assay is αvβ3 integrin (Homo sapiens, UniProt P05106+P06756). The settings on record: Pfaff et al. 1994; not to the αIIbβ3 or α5β1 integrins; cited from earlier work.
The subject of assay [3] is retinal neovascularization. Particulars: Hammes et al., Nature Med. 1996; cited from earlier work.
For the next assay, the system named is M21-L melanoma tumor. Kind of assay: In vivo chimeric mouse:human assay. The arrangement: species or system SCID mouse. The settings on record: intravenous, FIG. 18. As to the method:
An in vivo chimeric mouse:human model was generated by replacing a portion of skin from a SCID mouse with human neonatal foreskin (FIG. 4). After the skin graft was established, the human foreskin was inoculated with carcinoma cells. After a measurable tumor was established, either an αvβ3 antagonist or PBS was injected into the mouse tail vein. Following a 2-3 week period, the tumor was excised and analyzed by weight and histology.
The in vivo chimeric mouse:human model is prepared essentially as described in Yan, et al., J. Clin. Invest., 91:986-996 (1993). Briefly, a 2 cm^2 square area of skin was surgically removed from a SCID mouse (6-8 weeks of age) and replaced with a human foreskin. The mouse was anesthetized and the hair removed from a 5 cm^2 area on each side of the lateral abdominal region by shaving. Two circular graft beds of 2 cm^2 were prepared by removing the full thickness of skin down to the fascia. Full thickness human skin grafts of the same size derived from human neonatal foreskin were placed onto the wound beds and sutured into place. […]
In a procedure similar to that described above for monoclonal antibodies, peptide antagonists of αvβ3 were injected intravenously into the tail vein of SCID mice having measurable M21-L tumors. […] The mean volume and weight of resected tumors following treatment were determined with the results respectively shown in FIGS. 19A and 19B.

T2 sequence (P06756 31-889 limits assumed): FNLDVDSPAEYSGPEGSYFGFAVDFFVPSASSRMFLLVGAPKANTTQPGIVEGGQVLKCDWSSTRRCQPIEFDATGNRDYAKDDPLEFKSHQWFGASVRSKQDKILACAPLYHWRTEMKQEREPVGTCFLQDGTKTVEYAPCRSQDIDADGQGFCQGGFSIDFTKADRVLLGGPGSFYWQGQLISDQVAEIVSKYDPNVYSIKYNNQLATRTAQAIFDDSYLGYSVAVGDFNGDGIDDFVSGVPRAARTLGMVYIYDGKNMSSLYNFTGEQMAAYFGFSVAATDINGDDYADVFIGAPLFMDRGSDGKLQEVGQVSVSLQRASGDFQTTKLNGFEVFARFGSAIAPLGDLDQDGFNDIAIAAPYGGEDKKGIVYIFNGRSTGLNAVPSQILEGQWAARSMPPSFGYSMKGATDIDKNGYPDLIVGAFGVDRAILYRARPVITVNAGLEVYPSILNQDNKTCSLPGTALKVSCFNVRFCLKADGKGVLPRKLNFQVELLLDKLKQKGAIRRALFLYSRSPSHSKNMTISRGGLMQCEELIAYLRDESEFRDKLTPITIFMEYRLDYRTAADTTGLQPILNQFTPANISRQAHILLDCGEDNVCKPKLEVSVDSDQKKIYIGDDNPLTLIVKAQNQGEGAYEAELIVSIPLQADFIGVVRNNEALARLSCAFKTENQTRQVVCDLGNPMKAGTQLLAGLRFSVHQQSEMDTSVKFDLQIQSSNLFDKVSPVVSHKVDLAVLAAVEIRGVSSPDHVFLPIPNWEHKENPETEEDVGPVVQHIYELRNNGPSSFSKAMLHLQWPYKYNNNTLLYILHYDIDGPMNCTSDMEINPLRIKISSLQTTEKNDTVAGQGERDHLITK
T2 sequence (P06756 891-1048 partner limits assumed): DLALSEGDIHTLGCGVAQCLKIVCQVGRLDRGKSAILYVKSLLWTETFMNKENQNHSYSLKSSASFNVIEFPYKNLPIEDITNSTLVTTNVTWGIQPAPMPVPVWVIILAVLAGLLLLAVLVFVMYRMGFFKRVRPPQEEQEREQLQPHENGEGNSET
T2 sequence (P05106 27-788): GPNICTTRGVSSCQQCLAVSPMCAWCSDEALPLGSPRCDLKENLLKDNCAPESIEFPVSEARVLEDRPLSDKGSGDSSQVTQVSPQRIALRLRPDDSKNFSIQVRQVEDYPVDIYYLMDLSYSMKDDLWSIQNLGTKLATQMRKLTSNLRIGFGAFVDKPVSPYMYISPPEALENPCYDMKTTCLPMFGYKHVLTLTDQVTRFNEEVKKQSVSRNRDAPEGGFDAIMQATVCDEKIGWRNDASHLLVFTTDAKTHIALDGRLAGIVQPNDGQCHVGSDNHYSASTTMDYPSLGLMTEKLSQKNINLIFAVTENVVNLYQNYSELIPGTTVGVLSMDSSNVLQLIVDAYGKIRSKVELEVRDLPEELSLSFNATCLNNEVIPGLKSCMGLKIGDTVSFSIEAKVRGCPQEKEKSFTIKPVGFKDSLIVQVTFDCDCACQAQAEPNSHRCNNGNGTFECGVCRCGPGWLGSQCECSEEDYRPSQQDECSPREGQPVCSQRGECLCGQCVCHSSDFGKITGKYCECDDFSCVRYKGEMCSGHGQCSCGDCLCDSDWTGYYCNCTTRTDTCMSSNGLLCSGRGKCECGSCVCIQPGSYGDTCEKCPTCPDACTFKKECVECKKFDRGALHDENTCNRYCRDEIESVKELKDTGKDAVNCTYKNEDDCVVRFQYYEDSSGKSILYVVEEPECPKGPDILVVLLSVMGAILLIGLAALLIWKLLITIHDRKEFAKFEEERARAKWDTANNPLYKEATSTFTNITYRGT
T1 sequence (P08514 32-887 limits assumed): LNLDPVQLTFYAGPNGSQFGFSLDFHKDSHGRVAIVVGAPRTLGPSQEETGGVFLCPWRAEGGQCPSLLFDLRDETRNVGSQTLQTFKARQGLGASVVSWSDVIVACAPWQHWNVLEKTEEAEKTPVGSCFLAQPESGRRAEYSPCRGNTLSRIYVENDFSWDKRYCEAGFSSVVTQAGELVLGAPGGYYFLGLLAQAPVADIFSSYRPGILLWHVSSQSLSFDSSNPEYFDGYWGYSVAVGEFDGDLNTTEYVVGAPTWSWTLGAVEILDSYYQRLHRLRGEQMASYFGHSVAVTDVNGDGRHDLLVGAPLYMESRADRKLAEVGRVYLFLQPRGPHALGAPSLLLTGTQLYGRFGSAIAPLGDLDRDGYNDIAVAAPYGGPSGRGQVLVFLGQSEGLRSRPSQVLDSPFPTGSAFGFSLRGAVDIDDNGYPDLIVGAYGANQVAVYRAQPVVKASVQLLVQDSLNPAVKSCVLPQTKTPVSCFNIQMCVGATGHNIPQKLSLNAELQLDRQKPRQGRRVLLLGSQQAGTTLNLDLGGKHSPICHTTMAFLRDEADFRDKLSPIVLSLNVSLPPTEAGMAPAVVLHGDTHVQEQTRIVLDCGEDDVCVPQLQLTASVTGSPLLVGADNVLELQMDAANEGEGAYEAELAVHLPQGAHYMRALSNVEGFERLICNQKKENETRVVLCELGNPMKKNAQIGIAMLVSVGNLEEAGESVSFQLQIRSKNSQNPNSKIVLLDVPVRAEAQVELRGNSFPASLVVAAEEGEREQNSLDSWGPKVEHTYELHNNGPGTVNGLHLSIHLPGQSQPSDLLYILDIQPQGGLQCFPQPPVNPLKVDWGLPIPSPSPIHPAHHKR
T1 sequence (P08514 891-1039 partner limits assumed): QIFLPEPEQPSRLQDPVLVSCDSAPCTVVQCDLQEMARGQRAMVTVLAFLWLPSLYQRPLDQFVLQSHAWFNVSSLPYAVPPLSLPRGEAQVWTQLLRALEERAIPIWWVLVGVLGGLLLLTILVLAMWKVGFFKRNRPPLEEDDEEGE
T1 sequence (P05106 27-788): as the sequence (P05106 27-788) above
Sequence of αvβ3 integrin (P06756 31-889 limits assumed): as the sequence (P06756 31-889 limits assumed) above
Sequence of αvβ3 integrin (P06756 891-1048 partner limits assumed): as the sequence (P06756 891-1048 partner limits assumed) above
Sequence of αvβ3 integrin (P05106 27-788): as the sequence (P05106 27-788) above

`CC(C)[C@@H]1NC(=O)[C@@H](Cc2ccccc2)NC(=O)[C@H](CC(=O)O)NC(=O)CNC(=O)[C@H](CCCNC(=N)N)NC1=O` [Peptide 62184, cyclo (RGDfV)]: the “inhibition of tumor-induced blood vessel formation” value in assay [1] is “demonstrated to inhibit angiogenesis”. The “effect on bFGF-induced blood vessel formation” value in assay [2] is on record as “formation of blood vessels was inhibited”.
The IC50 is the concentration that gives 50% inhibition. Regarding `CC(C)[C@@H]1NC(=O)[C@H](Cc2ccccc2)NC(=O)[C@H](CC(=O)O)NC(=O)[C@@H](C)NC(=O)[C@H](CCCNC(=N)N)NC1=O` [Peptide 62186, cyclo (RaDFV)] (cyclo(R[dA]DFV)), the IC50 at αIIbβ3 is 100 ± 0.001 µM; at αvβ3 (radiolabeled fibrinogen, average of duplicate data points ± standard deviation, read-out: αvβ3 (IC50 μM)) it was 57.5 ± 7.84 µM. For the same molecule, in assay [2], the “effect on bFGF-induced blood vessel formation” value was “remained undisturbed”. Moreover, the “preference of inhibition of fibrinogen binding, αvβ3 versus αIIbβ3” value at αvβ3 (comparison of half-maximal concentrations of Table 2) is “either not as effective in blocking fibrinogen binding to αvβ3 or exhibited preferential inhibition of fibrinogen binding to αIIbβ3”.
Take cyclic RGDfV: the “inhibition of fibrinogen binding to integrins” value at αvβ3 integrin was “specifically inhibited binding of fibrinogen to the αvβ3 integrin”. Besides, the “inhibition of retinal neovascularization” value in assay [3] is reported as “inhibited retinal neovascularization”.

B1: LM609: monoclonal antibody specific for αvβ3 (anti-αvβ3) (antibody, V domains shown)
VH: EVQLEESGGGLVKPGGSLKLSCAASGFAFSSYDMSWVRQIPEKRLEWVAKVSSGGGSTYYLDTVQGRFTISRDNAKNTLYLQMSSLNSEDTAMYYCARHNYGSFAYWGQGTLVTVSA
VL: ELVMTQTPATLSVTPGDSVSLSCRASQSISNHLHWYQQKSHESPRLLIKYASQSISGIPSRFSGSGSGTDFTLSINSVETEDFGMYFCQQSNSWPHTFGGGTKLEIKRA
Regarding B1, the tumor volume result in the assay on M21-L melanoma tumor was “approximately 60 mm^3”.
